Data published in patent US5164391A, “Hydantoin derivatives for treating complications of diabetes and circulatory diseases” (priority 1989, dated 1992).
Read-outs that look alike come from different tables or passages of the source.

Assays:
right atrium = assay: Action to heart of guinea pig: right atrium (pulsations); set-up: species or system Hartley guinea pigs; conditions: right atrium, 32°±1° C.; for inhibition at 100 µM: Cavia porcellus, read-out: Pulsation;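 for all read-outs here: Dash means no recognizable influence on pulsation rate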
Method: (§1) Hartley guinea pigs (body weight of 300-400 g) were rendered unconscious by knocking their head and fixed upwardly to exenterate their heart. […] The vessel was previously filled with the Krebs-Henseleit solution and the said mixed gas was continuously fed therein.
(§2) Samples were prepared by separating from a ventricular muscle a right and left atrium, along an auricloventricular furrow or groove from the center-line of the right and left auricles.
A contraction of the sample, due to a compound to be tested, was recorded through an FD pick-up. Concurrently, pulsations were input to a measuring unit to count and record number of the pulsations.

thoracic aorta = assay: Action to the aorta of guinea pig (relaxation of contracted spiral samples); set-up: species or system Hartley guinea pigs; conditions: Cavia porcellus, 37° C.
Text: Hartley guinea pigs (body weight of 300-500 g) were rendered unconscious fainted by knocking their head and fixed upwardly. A thoracic aorta was taken out to prepare spiral samples, each having size of about 2×25 mm. The sample was suspended in a Magnus tube under a load of about 1 g and upper end of the sample was connected through a silk thread to a FD pick-up to record a change in isometric tension.
Composition of Krebs-Henseleit solution:
Prior to the experiment, the sample in the Magnus tube was left to stand, as it was, for 60 to 90 minutes and in such period of time, the Krebs-Henseleit solution was exchanged to fresh one at an interval of 20 to 30 minutes.
When the contraction of the sample became constant, the compound to be tested was gradually added in a amount starting at a concentration of 10^-8, to […] to observe the contraction of the sample. Finally, papaverine was added therein, so as to make its final concentration of 2×10^-5 g/ml, to check and record also the relaxing reaction or atony caused by the papaverine.

[1] = test system: blood pressure and cardiac pulsation; assay: Influences upon the blood pressure and cardiac pulsation in guinea pigs; format: in vivo, Hartley guinea pigs; conditions: i.v.
Text: Influences of compounds according to the invention upon the blood pressure and cardiac pulsation were checked with use of Hartley guinea pigs, as experimental animal.

left atrium = assay: Action to heart of guinea pig: left atrium (contraction power); set-up: species or system Hartley guinea pigs; conditions: left atrium, 32°±1° C.
Method: as §1, §2
The atrium was driven by contacting it with a platinum bipolar electrode attached to the cellfin and by stimulating the same with a rectangular pulse (1 Hz, 1 msec, 10 V). A movement of the sample was recorded by connecting the sample to a recorder through a silk thread and a FD pick-up.

[2] = contraction by KCl 2.5×10^-2 M, read-out: IC50 KCl contraction (50% relaxing)
[3] = contraction by norepinephrine 10^-6 g/ml, read-out: IC50 N.E. contraction (50% relaxing)
[4] = 10 mg/kg, Example 17 marked (*) p < 0.001
[5] = 10 mg/kg, Examples 16 and 17 marked (*) p < 0.001

IC50 (thoracic aorta; [2]) | IC50 (thoracic aorta; [3]) | SMILES | Pulsation (right atrium; 10^-4 (M)) | Pulsation (right atrium; 10^-5 (M)) | Change in blood pressure ([1]; 3 mg/kg) | Change in cardiac pulsation ([1]; 3 mg/kg) | Change in cardiac pulsation [1, 4] | Change in blood pressure [1, 5] | Contraction (left atrium; 10^-4 (M)) | Contraction (left atrium; 10^-5 (M)) | inhibition at 100 µM (right atrium; 10^-4 (M)) | inhibition at 100 µM (left atrium; Cavia porcellus, 10^-4 (M), read-out: Contraction) | inhibition at 10 µM (left atrium; Cavia porcellus, 10^-5 (M), read-out: Contraction)
8 µM | 2 µM | NC(=O)[C@@H]1C[C@]2(NC(=O)N(CCCN3CCC(O)CC3)C2=O)c2cc(F)ccc2O1 [Example 15, (2S,4S)-1'-[3-(4-Hydroxypiperidin-1-yl)propyl]-6-fluoro-2',5'-dioxospiro[chroman-4,4'-imidazolidine]-2-carboxamide] | - | - | -2.6 ± 1.8% | 0.0 ± 0.0% | -5.4 ± 2.9% | -12.2 ± 5.6% | - | - |  |  | 
59 µM | 5 µM | CCNC(=O)[C@@H]1C[C@]2(NC(=O)N(CCCN3CCC(O)CC3)C2=O)c2cc(F)ccc2O1 [Example 16, (2S,4S)-N-Ethyl-1'-[3-(4-hydroxypiperidin-1-yl)propyl]-6-fluoro-2',5'-dioxospiro[chroman-4,4'-imidaxolidine]-2-carboxamide] |  | - | -4.0 ± 4.0% | -1.2 ± 1.2% | -4.7 ± 4.6% | -21.3 ± 2.4% | - | - | 10 to 20% |  | 
1 µM | 30 µM | CCCCNC(=O)[C@@H]1C[C@]2(NC(=O)N(CCCN3CCC(O)CC3)C2=O)c2cc(F)ccc2O1 [Example 17, (2S,4S)-N-Butyl-1'-[3-(4-hydroxypiperidin-1-yl)propyl]-6-fluoro-2',5'-dioxospiro[chroman-4,4'-imidazolidine]-2-carboxamide] |  | - | -3.0 ± 3.0% | -1.1 ± 1.1% | -48.9 ± 2.2% | -43.8 ± 4.9% |  |  | 10 to 20% | > 20% | 10 to 20%
